# From patent US6893664B1, “Particle delivery techniques” (Powderject Research Limited, priority 1996, dated 2005)
# Tests used:
# Format in all cases: physicochemical
# [1] = Absolute density by helium pycnometry
# Description: (§1) Trehalose 45H3830 (Sigma) and mannitol K91698380-703 (Merck) were either sieved, or freeze dried, compacted, ground and then sieved. A range of the resulting preparations were then analyzed for particle size and density measurements.
# (§2) Portions of each sugar excipient were sieved to obtain preparations having reduced particle sizes. Sieving was carried out using stainless steel sieves for two hours at 3 mm amplitude using three sieve sizes (75 μm, 53 μm and 38 μm) without additional processing.
# (§3) Alternatively, portions of each sugar excipient were processed using the methods of the invention as follows. 40 g of each of the sugars was dissolved in water, flash frozen, and then freeze dried over night. Samples of each freeze dried preparation were retained, and the remainder compacted in a 13 mm compression die (15,000 lbs/inch^2 for 45 seconds) into discs. The mannitol discs were ground using mortar and pestle, and then sieved as described above at 3 mm amplitude, using three sieve sizes. The trehalose discs were first ground in a vibratory ball mill (Retsch mill), then ground by mortar and pestle and sieved as above.
# (§4) Samples from each of the above-described excipient preparations were then analyzed for absolute and envelope density. Absolute density was determined using helium pycnometry, and envelope density was determined using a GeoPyc™ Model 1360 Envelope Density Analyzer (Micromeritics Instrument Corp.).
# [2] = Envelope density by GeoPyc Model 1360 Envelope Density Analyzer; settings: for change of envelope density by compression, milling, sieving: relative to both the freeze-dried and the sieved preparations
# Description: as §1, §2, §3, §4
# [3] = Densification of excipients, comparison of compacted particles with like weights of non-densified starting materials; settings: compacted at 10,000 lbs/in^2 for 30 seconds, ground, sieved > about 50 μm
# Description: Finely ground powders of pharmaceutical grade mannitol and lactose were obtained and reprocessed using the method of the invention. Particularly, approximately 30 to 50 mg of mannitol or lactose were compacted under pressure using a Carver Laboratory Pellet Press (Model 3620, available from Carver, Inc., Wabash, Ind.). The pressure of compaction was 10,000 lbs/in^2 which was applied for approximately 30 seconds. The resulting compacted pellets were ground using mortar and pestle until visually broken up, and then sieved to select for particles having a size greater than about 50 μm using the methods described in Example 3.
# [4] = pretreatment: Freeze Dried, Compressed, Milled, Sieved
Structure (SMILES),Density Absolute ([1]; pretreatment: Freeze Dried) [g/mL],"Density Absolute [1, 4] [g/mL]",Density Absolute ([1]; pretreatment: Sieved) [g/mL],Density Envelope ([2]; pretreatment: Freeze Dried) [g/mL],"Density Envelope [2, 4] [g/mL]",Density Envelope ([2]; pretreatment: Sieved) [g/mL],"change of envelope density by compression, milling, sieving [2]",size of compacted particles versus like weights of non-densified starting materials [3]
OC[C@@H](O)[C@@H](O)[C@H](O)[C@H](O)CO [Mannitol],1.5,1.5,1.5,0.3,0.8,0.5,significant increase in envelope density,a significant size reduction was observed
OC[C@H]1O[C@H](O[C@H]2O[C@H](CO)[C@@H](O)[C@H](O)[C@H]2O)[C@H](O)[C@@H](O)[C@@H]1O [Trehalose],1.5,1.5,1.5,0.3,0.8,0.5,significant increase in envelope density,–
OC[C@H]1O[C@@H](O[C@H]2[C@H](O)[C@@H](O)C(O)O[C@@H]2CO)[C@H](O)[C@@H](O)[C@H]1O (stereo partly shown) [lactose],–,–,–,–,–,–,–,a significant size reduction was observed
